For 27 compounds, CATDS and potency estimated from few doses results are on record in publication PMC11062922 (Nature Chemical Biology, 2023).

Structures are written as SMILES. A value given as a limit tells only on which side of the number the result lay.

One experiment deals with T1, AAK1 (Homo sapiens, UniProt Q2M2I8).
T1 construct: to maximize the representation of endogenous proteins; endogenous in cells
Kind of experiment: Kinobeads two-dose competition binding: AAK1.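 On all read-outs here: kinobeads competition pulldown from cell lysate, compound preincubated 45 min at 4 °C, bead-bound protein measured by label-free mass spectrometry against DMSO vehicle control.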 The following applies: for CATDS: sheet CATDS matrix 2, Gene Name AAK1; for potency estimated from few doses: sheet "Kinobeads Drugmatrix - all", unit inferred, same values below 1000 recur in sheet "nanomolar", read-out: Kinobeads Drugmatrix - all: apparent Kd, AAK1.

The target of another experiment is T2, ACAD11 (Homo sapiens, UniProt Q709F0).
T2 construct: endogenous in cells
T2 sequence (Q709F0 1-780): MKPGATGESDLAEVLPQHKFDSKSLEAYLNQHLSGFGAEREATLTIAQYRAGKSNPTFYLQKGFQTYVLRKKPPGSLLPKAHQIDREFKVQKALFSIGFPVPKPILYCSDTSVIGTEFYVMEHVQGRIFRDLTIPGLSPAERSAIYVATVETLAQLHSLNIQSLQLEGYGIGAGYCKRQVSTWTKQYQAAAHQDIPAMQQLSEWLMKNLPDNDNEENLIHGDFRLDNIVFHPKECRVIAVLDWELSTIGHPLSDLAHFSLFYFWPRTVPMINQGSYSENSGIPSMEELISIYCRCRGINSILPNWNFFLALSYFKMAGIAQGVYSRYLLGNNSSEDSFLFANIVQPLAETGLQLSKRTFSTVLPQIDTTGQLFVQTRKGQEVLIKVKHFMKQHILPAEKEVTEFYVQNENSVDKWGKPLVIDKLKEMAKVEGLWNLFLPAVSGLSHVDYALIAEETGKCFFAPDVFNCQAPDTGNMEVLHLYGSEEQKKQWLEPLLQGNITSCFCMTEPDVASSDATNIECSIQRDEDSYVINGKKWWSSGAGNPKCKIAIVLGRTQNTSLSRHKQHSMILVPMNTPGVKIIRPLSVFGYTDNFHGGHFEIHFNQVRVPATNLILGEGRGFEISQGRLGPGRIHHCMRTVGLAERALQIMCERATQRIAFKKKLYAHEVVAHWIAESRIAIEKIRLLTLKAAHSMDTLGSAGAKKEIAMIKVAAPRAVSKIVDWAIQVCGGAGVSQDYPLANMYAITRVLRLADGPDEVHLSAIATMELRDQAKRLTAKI
Kind of experiment: Kinobeads two-dose competition binding: ACAD11. The following applies: sheet CATDS matrix 2; Gene Name ACAD11.

The next experiment has as its target T3, ACOX1 (Homo sapiens, UniProt Q15067).
T3 construct: endogenous in cells
T3 sequence (Q15067 1-660): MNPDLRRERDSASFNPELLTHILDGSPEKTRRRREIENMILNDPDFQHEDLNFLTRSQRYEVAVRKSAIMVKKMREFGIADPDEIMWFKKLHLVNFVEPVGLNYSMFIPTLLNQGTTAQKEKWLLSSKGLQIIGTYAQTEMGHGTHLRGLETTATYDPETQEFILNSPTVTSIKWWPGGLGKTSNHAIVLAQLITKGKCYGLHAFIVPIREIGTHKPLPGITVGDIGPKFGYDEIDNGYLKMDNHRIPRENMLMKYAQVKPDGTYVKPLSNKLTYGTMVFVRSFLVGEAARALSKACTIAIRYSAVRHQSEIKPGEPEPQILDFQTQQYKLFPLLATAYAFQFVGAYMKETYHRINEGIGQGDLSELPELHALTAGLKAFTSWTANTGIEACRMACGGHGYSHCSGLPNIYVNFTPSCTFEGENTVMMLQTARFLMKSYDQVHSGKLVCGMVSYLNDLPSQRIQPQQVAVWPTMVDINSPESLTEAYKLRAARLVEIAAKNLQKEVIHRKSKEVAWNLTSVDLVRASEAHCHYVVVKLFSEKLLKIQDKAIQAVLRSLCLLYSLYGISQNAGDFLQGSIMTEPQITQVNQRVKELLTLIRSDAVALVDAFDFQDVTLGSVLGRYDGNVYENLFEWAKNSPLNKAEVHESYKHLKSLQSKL
Put plainly: Kinobeads two-dose competition binding: ACOX1.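 Further: competition of compounds with immobilized broad-spectrum kinase inhibitor beads in cell lysate at 100 and 1,000 nM, 45 min at 4 °C, bead-bound protein quantified by label-free MS versus DMSO.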 Conditions: sheet CATDS matrix 2; Gene Name ACOX1.

For another experiment, the target named is T4, ABL2 (Homo sapiens, UniProt P42684).
T4 construct: endogenous in cells
Kind of experiment: Kinobeads two-dose competition binding: ABL2. The following applies: sheet CATDS matrix 2; Gene Name ABL2.

A further experiment addresses ABL1 (Homo sapiens, UniProt P00519). Kind of experiment: Kinobeads two-dose competition binding: ABL1. Conditions: sheet CATDS matrix 2; Gene Name ABL1.

T1 sequence (Q2M2I8 whole entry): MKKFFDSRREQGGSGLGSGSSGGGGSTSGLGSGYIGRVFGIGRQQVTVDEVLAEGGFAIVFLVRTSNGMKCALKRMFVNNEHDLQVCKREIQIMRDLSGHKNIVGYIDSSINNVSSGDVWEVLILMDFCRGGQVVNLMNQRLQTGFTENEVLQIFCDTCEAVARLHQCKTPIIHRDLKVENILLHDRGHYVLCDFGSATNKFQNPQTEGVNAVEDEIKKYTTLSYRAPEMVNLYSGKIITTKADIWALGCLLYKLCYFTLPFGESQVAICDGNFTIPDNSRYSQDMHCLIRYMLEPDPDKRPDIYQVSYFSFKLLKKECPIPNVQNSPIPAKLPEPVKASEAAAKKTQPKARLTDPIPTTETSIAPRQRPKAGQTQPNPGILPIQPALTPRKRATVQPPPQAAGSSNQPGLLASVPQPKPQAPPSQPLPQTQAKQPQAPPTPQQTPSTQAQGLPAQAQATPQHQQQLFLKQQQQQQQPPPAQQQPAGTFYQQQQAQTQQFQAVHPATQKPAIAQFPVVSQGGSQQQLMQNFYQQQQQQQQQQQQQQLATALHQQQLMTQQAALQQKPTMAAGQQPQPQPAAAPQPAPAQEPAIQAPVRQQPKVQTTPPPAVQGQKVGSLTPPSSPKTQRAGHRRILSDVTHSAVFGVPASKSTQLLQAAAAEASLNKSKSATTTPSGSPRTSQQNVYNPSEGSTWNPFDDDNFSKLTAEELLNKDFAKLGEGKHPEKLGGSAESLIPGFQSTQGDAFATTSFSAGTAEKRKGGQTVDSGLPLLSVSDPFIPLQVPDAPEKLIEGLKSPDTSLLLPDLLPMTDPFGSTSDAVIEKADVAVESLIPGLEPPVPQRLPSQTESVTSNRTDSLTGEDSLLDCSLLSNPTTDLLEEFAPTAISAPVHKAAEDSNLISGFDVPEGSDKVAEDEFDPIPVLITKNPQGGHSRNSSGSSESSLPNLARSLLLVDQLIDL
T4 sequence (P42684 whole entry): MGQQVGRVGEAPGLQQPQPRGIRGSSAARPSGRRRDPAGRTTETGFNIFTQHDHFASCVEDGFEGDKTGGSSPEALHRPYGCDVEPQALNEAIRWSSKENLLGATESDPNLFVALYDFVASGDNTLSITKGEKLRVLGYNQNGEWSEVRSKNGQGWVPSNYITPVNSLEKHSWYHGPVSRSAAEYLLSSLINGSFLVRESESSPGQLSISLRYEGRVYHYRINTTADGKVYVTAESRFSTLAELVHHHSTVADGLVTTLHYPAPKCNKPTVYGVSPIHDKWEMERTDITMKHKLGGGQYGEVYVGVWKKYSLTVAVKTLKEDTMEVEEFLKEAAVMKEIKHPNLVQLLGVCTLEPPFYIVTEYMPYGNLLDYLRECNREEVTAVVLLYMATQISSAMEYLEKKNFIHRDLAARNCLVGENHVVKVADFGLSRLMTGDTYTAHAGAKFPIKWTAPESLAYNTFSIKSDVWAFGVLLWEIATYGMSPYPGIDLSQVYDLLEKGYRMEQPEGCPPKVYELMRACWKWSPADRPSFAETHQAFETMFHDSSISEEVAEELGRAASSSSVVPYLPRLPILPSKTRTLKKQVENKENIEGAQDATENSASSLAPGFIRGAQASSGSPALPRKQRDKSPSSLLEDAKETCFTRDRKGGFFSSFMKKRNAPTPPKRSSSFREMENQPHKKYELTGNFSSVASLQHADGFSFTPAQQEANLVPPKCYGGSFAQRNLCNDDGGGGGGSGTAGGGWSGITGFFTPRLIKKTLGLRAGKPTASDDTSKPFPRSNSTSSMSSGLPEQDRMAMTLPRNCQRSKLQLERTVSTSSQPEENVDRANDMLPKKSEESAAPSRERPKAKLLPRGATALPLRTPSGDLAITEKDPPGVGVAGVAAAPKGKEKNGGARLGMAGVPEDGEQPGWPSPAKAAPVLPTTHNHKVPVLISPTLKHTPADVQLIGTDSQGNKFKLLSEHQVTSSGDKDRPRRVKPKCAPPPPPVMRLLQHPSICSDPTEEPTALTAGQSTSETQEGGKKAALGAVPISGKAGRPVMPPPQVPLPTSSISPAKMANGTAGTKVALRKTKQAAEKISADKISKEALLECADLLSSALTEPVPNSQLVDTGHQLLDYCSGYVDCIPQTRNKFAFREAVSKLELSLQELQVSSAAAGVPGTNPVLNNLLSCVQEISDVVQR
Sequence of ABL1 (P00519 28-1130 limits assumed): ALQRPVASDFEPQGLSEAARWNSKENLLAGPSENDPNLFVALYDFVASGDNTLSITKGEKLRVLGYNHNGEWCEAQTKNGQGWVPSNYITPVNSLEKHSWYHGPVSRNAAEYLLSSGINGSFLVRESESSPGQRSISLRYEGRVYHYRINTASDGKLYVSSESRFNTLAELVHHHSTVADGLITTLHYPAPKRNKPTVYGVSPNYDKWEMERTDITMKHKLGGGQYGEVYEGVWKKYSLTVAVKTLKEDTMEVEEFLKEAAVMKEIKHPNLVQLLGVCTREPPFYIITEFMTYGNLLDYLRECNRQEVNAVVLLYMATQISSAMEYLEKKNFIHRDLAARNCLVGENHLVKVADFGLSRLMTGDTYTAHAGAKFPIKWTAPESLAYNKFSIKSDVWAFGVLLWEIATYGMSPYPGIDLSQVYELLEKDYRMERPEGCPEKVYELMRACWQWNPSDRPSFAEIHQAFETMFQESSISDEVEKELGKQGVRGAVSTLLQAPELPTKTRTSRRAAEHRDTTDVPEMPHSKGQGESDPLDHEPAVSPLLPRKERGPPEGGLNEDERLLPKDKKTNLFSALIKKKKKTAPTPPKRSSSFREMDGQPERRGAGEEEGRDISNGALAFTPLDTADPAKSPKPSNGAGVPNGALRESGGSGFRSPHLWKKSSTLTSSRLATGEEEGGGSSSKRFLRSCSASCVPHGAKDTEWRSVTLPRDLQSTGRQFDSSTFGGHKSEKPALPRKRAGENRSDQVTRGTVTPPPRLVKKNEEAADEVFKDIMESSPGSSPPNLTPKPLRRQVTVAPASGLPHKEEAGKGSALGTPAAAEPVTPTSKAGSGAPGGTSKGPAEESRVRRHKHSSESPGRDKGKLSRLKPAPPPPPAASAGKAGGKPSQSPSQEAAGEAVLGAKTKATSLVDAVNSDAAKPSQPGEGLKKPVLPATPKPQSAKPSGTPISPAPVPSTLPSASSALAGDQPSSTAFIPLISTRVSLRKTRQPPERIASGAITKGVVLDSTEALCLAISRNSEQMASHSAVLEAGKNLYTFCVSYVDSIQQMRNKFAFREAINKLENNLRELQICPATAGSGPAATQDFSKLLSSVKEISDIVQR

For `O=C(Nc1c[nH]nc1-c1nc2ccc(CN3CCOCC3)cc2[nH]1)NC1CC1` [AT-9283, reference compound], the CATDS on AAK1 worked out at 0.0448; on ACAD11, 0; at ACOX1 it was 0; at ABL2 it was 0.
Take `CNC(=O)c1ccccc1Sc1ccc2c(/C=C/c3ccccn3)n[nH]c2c1` [Axitinib, reference compound]: the CATDS on AAK1, at ACAD11, at ACOX1 and at ABL2 was 0 each time.
As for `CCC(NN(C)C)=C1C(=O)Nc2ccc(C(C)=O)cc21` [BI00036838], the CATDS on AAK1, on ACAD11, at ACOX1, at ABL2 and at ABL1 was 0 throughout.
In the case of `CC(C)C(=O)N[C@@H]1CCN(C(=O)Nc2nc3c(s2)-c2nc(-c4ccccc4Cl)ncc2CC3)C1` [BI00047804], the CATDS at AAK1, on ACAD11, at ACOX1, at ABL2 and at ABL1 was 0 in each case.
Regarding `COc1cc2ncnc(Nc3cccc(Cl)c3F)c2cc1O[C@H]1CC[C@@]2(CC1)NCCNC2=O` [BI00113608], the CATDS on AAK1, on ACAD11, at ACOX1, on ABL2 and at ABL1 was 0 each time.
`COc1cc2ncnc(Nc3cccc(Cl)c3F)c2cc1O[C@H]1CC[C@H]([C@@H]2NCCNC2=O)CC1` [BI00133844]: the CATDS at AAK1, on ACAD11, at ACOX1, on ABL2 and at ABL1 was 0 throughout.
`O=c1[nH]c2cc(Nc3ccc(F)cc3F)ccc2n1CC1CCCCC1` [BI00601000]: the CATDS at AAK1, on ACAD11, at ACOX1, at ABL2 and at ABL1 was 0 in each case.
Take `CCCc1cc(N2CCCN(C)CC2)nc2sc3c(N)ncnc3c12` [BI00604564]: the potency estimated from few doses at AAK1 is more than 1000 nM. In addition, the CATDS on AAK1, at ACAD11, on ACOX1, at ABL2 and on ABL1 was 0 in each case.
`NCC1CNC(=O)c2cc3ccc(C(=O)Nc4cccnc4)cc3n2C1` (centres unmarked) [BI00614644]: the CATDS on AAK1, on ACAD11, on ACOX1, on ABL2 and on ABL1 was 0 throughout.
As for `C[C@@H]1CCNC(=O)c2cc3ccc(C(=O)Nc4nc5ccccc5n4CCCN(C)C)cc3n21` [BI00645435], the CATDS at AAK1, on ACAD11, at ACOX1, on ABL2 and on ABL1 was 0 in each case.
In the case of `CCCNC(=O)c1ccc(Nc2ncc(C(F)(F)F)c(Nc3ccccc3C(C)=O)n2)c(Br)c1` [BI00801818], the CATDS on AAK1, at ACAD11, at ACOX1, at ABL2 and at ABL1 was 0 in each case.
As for `CCCS(=O)(=O)Nc1ccc(F)c(-n2cc(-c3cncc(OC)c3)nn2)c1F` [BI00865461], the CATDS on AAK1, at ACAD11, on ACOX1, on ABL2 and on ABL1 was 0 each time.
In the case of `NC(=O)c1cccnc1COc1cc(-c2ccc(N3CCOCC3)nc2)cc2ncccc12` [BI01125081], the CATDS at AAK1, at ACAD11, on ACOX1, on ABL2 and at ABL1 was 0 throughout.
With `COc1cc2c(cc1OC)C(=C(Nc1ccccc1)c1cccc(CN)c1)C(=O)N2` [BIBF0846CL], the CATDS on AAK1, on ACAD11, on ACOX1, on ABL2 and on ABL1 was 0 in each case.
In the case of `COc1cc2ncnc(Nc3ccc(F)c(Cl)c3)c2cc1O[C@H]1CC[C@H](N)CC1` [BIBW3133BS], the CATDS at AAK1, on ACAD11, at ACOX1, on ABL2 and on ABL1 was 0 throughout.
Regarding `COc1cc(Nc2c(C#N)cnc3cc(OCCCN4CCN(C)CC4)c(OC)cc23)c(Cl)cc1Cl` [Bosutinib, reference compound], the CATDS at ACAD11 and on ACOX1 was 0 throughout.
For `C[C@@H](Oc1cc(-c2cnn(C3CCNCC3)c2)cnc1N)c1c(Cl)ccc(F)c1Cl` [Crizotinib, reference compound], the CATDS on AAK1 is 0; on ACAD11, 0; on ACOX1, 0; at ABL2 it was 0.04718.
In the case of `CC(C)(C)c1nc(-c2cccc(NS(=O)(=O)c3c(F)cccc3F)c2F)c(-c2ccnc(N)n2)s1` [Dabrafenib, reference compound], the CATDS on AAK1 is 0; on ACAD11, 0; at ACOX1 it was 0; on ABL2 it was 0.02813.
On to `CO[C@@H](C(=O)N1Cc2n[nH]c(NC(=O)c3ccc(N4CCN(C)CC4)cc3)c2C1)c1ccccc1` [Danusertib, reference compound], for which the CATDS was determined as 0 on AAK1, 0 on ACAD11, 0 on ACOX1 and 0.05811 on ABL2.
Take `Cc1nc(Nc2ncc(C(=O)Nc3c(C)cccc3Cl)s2)cc(N2CCN(CCO)CC2)n1` [Dasatinib, reference compound]: the CATDS on AAK1 is on record as 0; on ACAD11 it was 0; at ACOX1, 0; at ABL2, 0.1826.
On to `C#Cc1cccc(Nc2ncnc3cc(OCCOC)c(OCCOC)cc23)c1` [Erlotinib, reference compound], for which the CATDS on AAK1 and on ABL1 was 0 throughout.
With `COc1cc2ncnc(Nc3cccc(Br)c3)c2cc1OC` [GI230329A], the CATDS at AAK1, on ACAD11, at ACOX1 and on ABL2 was 0 each time.
As to `COc1ccc(CNC(=O)NC2CCN(c3ccnc(Nc4cc(OC)c(OC)c(OC)c4)n3)C2)cc1` (centres unmarked) [GSK1379748A], the potency estimated from few doses on AAK1 is more than 1000 nM.
Regarding `COc1cccc(NC(=O)NC2CCN(c3ccnc(Nc4cc(OC)c(OC)c(OC)c4)n3)C2)c1` (centres unmarked) [GSK1379763A], the potency estimated from few doses on AAK1 is more than 1000 nM.
Take `O=c1[nH]ccc2nc(N[C@@H]3CCCNC3)nc(Nc3ccc(S(=O)(=O)N4CCOCC4)cc3)c12` [GSK2177277A]: the potency estimated from few doses at AAK1 is 64.1 nM. Moreover, the CATDS at AAK1 came out at 0.01814; at ACOX1 it was 0; at ABL2 it was 0; at ABL1 it was 0.
`CNc1nc(-c2ccc3c(N)n[nH]c3c2)cc(N2C[C@@H](C(=O)NC3CCCCC3)CC[C@H]2C)n1` [GSK2334470]: the CATDS on AAK1, on ACAD11, at ACOX1 and on ABL2 was 0 throughout.
With `COc1cc2ncnc(Nc3ccc(F)c(Cl)c3)c2cc1OCCCN1CCOCC1` [Gefitinib, reference compound], the CATDS at AAK1 came to 0.
